We go through six molecules from patent US6376497B1, “Antifungal azole derivatives having a fluorinated vinyl group and process for preparing same” (Korea Research Institute of Chemical Technology, priority 1999, dated 2002).

Holding throughout (test): In vitro antifungal activity, microbroth dilution MIC
Holding throughout (type): cell-based

Assay [1] relates to Aspergillus furnigatus B. 19119. As to conditions: A furnigatus B. 19119, RPMI-1640, 35° C., 4 to 48 hours. The method, then:
(§1) In vitro antifungal activities of the inventive antifungal compounds were evaluated using the test strains shown in Table VIII by the following microbroth dilution method which is a modified version of the procedure recommended by National Committee for Clinical Laboratory Standards(see National Committee for Clinical Laboratory Standards, 1992, Reference methods for broth dilution antifungal susceptibility testing of yeasts, Proposed standard M27-P, National Committee for clinical laboratory standards, Villanova, Pa; and National Committee for Clinical Laboratory Standards, 1995, Reference methods for broth dilution antifungal susceptibility testing of yeasts. Tentative standard M27-T, National Committee for clinical laboratory standards, Villanova, Pa).
(§2) Sabourad Dextrose Agar(Difco) was used as a culture medium, and RPMI-1640 broth(Sigma. Co. w/L-glutamine, wo/NaHCO3)(0.165 M MOPS, pH 7.0), as a dilution medium.
(§3) Each of the test strains were subcultured in Sabourad Dextrose Agar medium twice and a stain sample was taken from prominent colonies and suspended in sterile physiological saline solution in a cap tube. The turbidity of the suspension was adjusted to that of the Mcfarland 0.5 standard sample(approximately 10^6 CFU/ml). Then the suspension was diluted 500-fold with sterile RPMI-1640 liquid medium to 2×10^3 CFU/ml.
(§4) Each of the test compounds(the compounds obtained in Examples 1 to 150 and comparative compounds, i.e., fluconazole(FCZ) and itraconazole (ICZ)), was dissolved in DMSO to give a stock solution having a concentration of 4000 μg/ml and the stock solution was successively diluted to obtain test solutions having test compound concentrations of 200, 100, 50, 25, 12.5, 6.25, 3.13, 1.56, 0.78, 0.39, 0.20 and 0.10 μg/ml, respectively.
(§5) 0.1 ml portion of the test solutions were added to the wells of a sterile 96 well plate. Then, 0.1 ml portion of each of the test strain solutions were added successively to the wells and the plate was incubated at 35° C. for 4 to 48 hours.
(§6) Minimal inhibitory concentration(MIC) of each compound was defined as the concentration of the test compound where no growth of the strain could be observed.

For assay [2], the system named is Aspergillus niger A. 16404. As to conditions: A. niger A. 16404, RPMI-1640, 35° C., 4 to 48 hours. The method, then: as §1, §2, §3, §4, §5, §6
The subject of assay [3] is Candida albicans A. 10231. Conditions: C. albicans A. 10231, RPMI-1640, 35° C., 4 to 48 hours. The procedure:
as §1, §2, §3, §4, §5, §6

For the next assay, the system named is Candida albicans C1-2. Conditions: C. albicans C1-2, RPMI-1640, 35° C., 4 to 48 hours. The procedure: as §1, §2, §3, §4, §5, §6
In assay [4] the test system is Candida albicans IFO. 1385. As to conditions: C. albicans IFO. 1385, RPMI-1640, 35° C., 4 to 48 hours. The procedure: as §1, §2, §3, §4, §5, §6
The next assay concerns Candida krusei K. 11655. Conditions: C. krusei K. 11655, RPMI-1640, 35° C., 4 to 48 hours. The method, then:
as §1, §2, §3, §4, §5, §6

The subject of assay [5] is Candida parapsitosis A. 7330. As to conditions: C. parapsitosis A. 7330, RPMI-1640, 35° C., 4 to 48 hours. The method, then:
as §1, §2, §3, §4, §5, §6

Assay [6] deals with Candida pseudotropicalis K. 11658. As to conditions: C. pseudotropicalis K. 11658, RPMI-1640, 35° C., 4 to 48 hours. The method, then:
as §1, §2, §3, §4, §5, §6

Assay [7] has as its system Candida tropicalis A. 13803. As to conditions: C. tropicalis A. 13803, RPMI-1640, 35° C., 4 to 48 hours. The procedure:
as §1, §2, §3, §4, §5, §6

The test system of assay [8] is Cryptococcus neoformans A. 34144. As to conditions: Cry. neoformans A. 34144, RPMI-1640, 35° C., 4 to 48 hours. The method, then:
as §1, §2, §3, §4, §5, §6

For assay [9], the system named is Cryptococcus neoformans B. 42419. Conditions: Cry. neoformans B. 42419, RPMI-1640, 35° C., 4 to 48 hours. The method, then: as §1, §2, §3, §4, §5, §6
Assay [10] has as its system Cryptococcus neoformans IFM. 40092. Conditions: Cry. neoformans IFM. 40092, RPMI-1640, 35° C., 4 to 48 hours. The method, then:
as §1, §2, §3, §4, §5, §6

Assay [11] has as its system Torulopsis glabrata B. 16205. Conditions: T. glabrata B. 16205, RPMI-1640, 35° C., 4 to 48 hours. The method, then:
as §1, §2, §3, §4, §5, §6

Assay [12] concerns Trichophyton mentagrophytes A. 9129. As to conditions: T. mentagrophytes A. 9129, RPMI-1640, 35° C., 4 to 48 hours. The procedure:
as §1, §2, §3, §4, §5, §6

Assay [13] concerns Trichophyton mentagrophytes B. 32663. As to conditions: T. mentagrophytes B. 32663, RPMI-1640, 35° C., 4 to 48 hours. The method, then: as §1, §2, §3, §4, §5, §6

As for `FC(OCC1COC(Cn2ccnc2)(c2ccc(Cl)cc2Cl)O1)=C(c1cccs1)C(F)(F)F` (mixture of isomers) [Ex. 35], the “Minimal inhibitory concentration (MIC)” value in assay [1] was 100 µg/mL; in assay [2] it was 100 µg/mL; in [3], 25.0 µg/mL; in the assay on Candida albicans C1-2, 25.0 µg/mL; in [4] it was 1.56 µg/mL; with Candida krusei K. 11655 it was >100 µg/mL. Besides, the “Minimal inhibitory concentration (MIC)” value in assay [5] was >100 µg/mL; in [6], >100 µg/mL; in assay [7], 100 µg/mL; in [8] it was 1.56 µg/mL; in assay [9], 1.56 µg/mL; in [10], 0.78 µg/mL. In addition, the results for the “Minimal inhibitory concentration (MIC)” value in assay [11], in assay [12] and in assay [13] were 25.0 µg/mL, 25.0 µg/mL and 6.25 µg/mL, respectively.
Turning to `FC(=Cc1ccccc1)OCC1COC(Cn2ccnc2)(c2ccc(F)cc2F)O1` (mixture of isomers) [Ex. 36], the “Minimal inhibitory concentration (MIC)” value amounted to 1.56 µg/mL in assay [1]; 12.5 µg/mL in assay [2]; 50.0 µg/mL in assay [3]; 50.0 µg/mL in the assay on Candida albicans C1-2; 0.78 µg/mL in assay [4]; 50.0 µg/mL with Candida krusei K. 11655. For the same molecule, the “Minimal inhibitory concentration (MIC)” value was 25.0 µg/mL in assay [5]; 25.0 µg/mL in [6]; 100 µg/mL in assay [7]; 6.25 µg/mL in [8]; 3.13 µg/mL in assay [9]; 0.78 µg/mL in assay [10]. In addition, the entries for the “Minimal inhibitory concentration (MIC)” value in assay [11], in assay [12] and in assay [13] were 25.0 µg/mL, 1.56 µg/mL and 0.39 µg/mL, respectively.
For the molecule `Cc1cccc(C=C(F)OCC2COC(Cn3ccnc3)(c3ccc(F)cc3F)O2)c1` (mixture of isomers) [Ex. 37], the “Minimal inhibitory concentration (MIC)” value is >100 µg/mL in assay [1]; >100 µg/mL in assay [2]; 25.0 µg/mL in [3]; 25.0 µg/mL with Candida albicans C1-2; 3.13 µg/mL in assay [4]; >100 µg/mL in the assay on Candida krusei K. 11655. For the same molecule, the “Minimal inhibitory concentration (MIC)” value in [5] is >100 µg/mL; in [6] it was >100 µg/mL; in assay [7], >100 µg/mL; in [8] it was 3.13 µg/mL; in assay [9] it was 6.25 µg/mL; in assay [10], 0.78 µg/mL. For the same molecule, the “Minimal inhibitory concentration (MIC)” value in assay [11] amounted to 6.25 µg/mL; in assay [12], 50.0 µg/mL; in assay [13] it was 25.0 µg/mL.
Consider `Cc1ccc(C=C(F)OCC2COC(Cn3ccnc3)(c3ccc(F)cc3F)O2)cc1` (mixture of isomers) [Ex. 38], for which the “Minimal inhibitory concentration (MIC)” value is 12.5 µg/mL in [1]; 50.0 µg/mL in assay [2]; 12.5 µg/mL in assay [3]; 12.5 µg/mL in the assay with Candida albicans C1-2; 0.39 µg/mL in [4]; 25.0 µg/mL with Candida krusei K. 11655. Besides, the “Minimal inhibitory concentration (MIC)” value in assay [5] amounted to 12.5 µg/mL; in assay [6] it was 12.5 µg/mL; in assay [7] it was 25.0 µg/mL; in [8] it was 1.56 µg/mL; in [9], 1.56 µg/mL; in assay [10], 0.20 µg/mL. The “Minimal inhibitory concentration (MIC)” value in [11] came out at 6.25 µg/mL; in [12] it was 6.25 µg/mL; in assay [13] it was 1.56 µg/mL.
In the case of `CCc1ccc(C=C(F)OCC2COC(Cn3ccnc3)(c3ccc(F)cc3F)O2)cc1` (mixture of isomers) [Ex. 39], the “Minimal inhibitory concentration (MIC)” value in assay [1] came out at 12.5 µg/mL; in assay [2] it was 50.0 µg/mL; in assay [3], 12.5 µg/mL; in the assay on Candida albicans C1-2 it was 12.5 µg/mL; in assay [4], 0.39 µg/mL; in the assay on Candida krusei K. 11655, 25.0 µg/mL. Besides, the “Minimal inhibitory concentration (MIC)” value was found to be 12.5 µg/mL in assay [5]; 12.5 µg/mL in [6]; 25.0 µg/mL in assay [7]; 1.56 µg/mL in [8]; 1.56 µg/mL in assay [9]; 0.20 µg/mL in assay [10]. In addition, the results for the “Minimal inhibitory concentration (MIC)” value in [11], in [12] and in [13] were 6.25 µg/mL, 6.25 µg/mL and 1.56 µg/mL, respectively.
In the case of `Cc1ccc(C=C(F)OCC2COC(Cn3ccnc3)(c3ccc(F)cc3F)O2)cc1C` (mixture of isomers) [Ex. 40], the “Minimal inhibitory concentration (MIC)” value was found to be 12.5 µg/mL in [1]; 25.0 µg/mL in assay [2]; 12.5 µg/mL in [3]; 12.5 µg/mL with Candida albicans C1-2; 0.78 µg/mL in assay [4]; 25.0 µg/mL in the assay with Candida krusei K. 11655. Besides, the “Minimal inhibitory concentration (MIC)” value was 25.0 µg/mL in assay [5]; 25.0 µg/mL in assay [6]; 25.0 µg/mL in [7]; 1.56 µg/mL in [8]; 1.56 µg/mL in [9]; 0.20 µg/mL in assay [10]. Further, the entries for the “Minimal inhibitory concentration (MIC)” value in assay [11], in [12] and in assay [13] were 6.25 µg/mL, 6.25 µg/mL and 1.56 µg/mL, respectively.
